Test [1] deals with recombinant PsauGOBP2. Nature of the test: Competitive fluorescence binding assay: displacement of 1-NPN from recombinant PsauGOBP2. Set-up: species or system Peridroma saucia. The note with it: means ± SE, n = 3; for Ki: Ki = [IC50]/(1 + [1-NPN]/K1-NPN), read-out: Ki (calculated dissociation constant); for IC50: PsauGOBP2 and 1-NPN, IC50 > 30 μM considered no binding affinity, read-out: IC50 (concentration of ligand halving the initial fluorescence value of 1-NPN). The protocol: (§1) For the expression of recombinant PsauGOBP2, pET-30b containing the sequence encoding mature PsauGOBP2 was used to transform BL21 E. coli cells. Protein expression was induced by the addition of IPTG (final concentration 0.4 mM) when the OD600 value of cell culture reached about 0.8. Cells cultured for further 2–4 h at 37°C were harvested by centrifugation. PsauGOBP2 was present as inclusion bodies. 10 mL of 8 M urea and 1 mM DTT in Tris buffer (50 mM, pH 7.4) were then used to solubilise the inclusion body pellet (from 1 L of culture). The dissolved protein was dialyzed against 1 L of Tris buffer (50 mM, pH 7.4). The recombinant protein was purified on the anion exchange resins QFF, following standard protocols previously adopted for other moth OBPs ([Sun et al., 2012]; [Sun et al., 2021]).
Binding affinities of odorants to PsauGOBP2 were measured by competitive binding assays. A panel of 28 compounds (competitors) including the P. saucia female sex pheromone components Z11-16: Ac and Z9-14: Ac and 26 host plant volatiles were used in the assay. The CAS number, source, and purity of these compounds were listed in Supplementary Table S3. A solution of PsauGOBP2 and 1-NPN, both at the concentration of […], was titrated with 1 mM of each competitor (dissolved in methanol) at a final concentration of 10 µM (sex pheromones) or 20 µM (host plant volatiles). The dissociation constants (Ki) of competitors to PsauGOBP2 were calculated using the equation: Ki = [IC50]/(1 + [1-NPN]/K1-NPN), where [IC50] is the concentration of the competitor halving (50%) the initial fluorescence value (100%), [1-NPN] is the free concentration of 1-NPN, and K1-NPN is the dissociation constant of the protein-1-NPN complex.

For the next test, the target named is PsauGOBP1. Set-up: method as in Sun et al., 2021. Conditions: binding to PsauGOBP1; ref Sun et al., 2021; cited from earlier work.
For test [2], the target named is recombinant PsauGOBP2. The test can be described thus: Fluorescence binding assay: titration of recombinant PsauGOBP2 with the fluorescent probe 1-NPN. Set-up: species or system Peridroma saucia. The note with it: 2 mM protein in 50 mM Tris-HCl pH 7.4, titrated with 1-NPN to 20 µM; excitation 337 nm; means +SE, n = 3; single binding site; read-out: K1-NPN (dissociation constant of 1-NPN to PsauGOBP2). The protocol:
as §1
The fluorescence binding assays were conducted on a Hitachi F-2710 with a 1 cm light path quartz cuvette. To measure the affinity of the fluorescent probe 1-NPN (N-phenyl-1-naphthylamine) to PsauGOBP2, a […] solution of the protein in 50 mM Tris-HCl, pH 7.4, was titrated with aliquots of 1 mM 1-NPN in methanol to a final concentration of 20 µM. The probe was excited at 337 nm, and emission spectra were recorded between 380 and 460 nm. The dissociation constant of 1-NPN (K1-NPN) to PsauGOBP2 was obtained by processing the data with GraphPad Prism 6.0.

The mark [3] stands for this setting: remaining 1-NPN fluorescence at Max Conc 20 (20 µM, host plant volatiles).
Where [4] appears, read: remaining 1-NPN fluorescence at Max Conc 10 (10 µM, sex pheromones).

The values that follow come from paper PMC10450149, “Antennal transcriptome analysis of odorant-binding proteins and characterization of GOBP2 in the variegated cutworm Peridroma saucia” (Frontiers in Physiology, 2023).

Values joined by “and” are separate entries in the source; they are usually repeats but may differ in a detail not shown here. Equal values may be shown once.

Usually Ki stands for the equilibrium dissociation constant of an inhibitor or competing ligand from its target. Regarding `C=CC(=C)CCC=C(C)C` [β-Myrcene, β-myrcene], on recombinant PsauGOBP2 [1], the inhibition constant (Ki) was 8 ± 0.3 µM and the IC50 was found to be 12 ± 0.5 µM. In the test on recombinant PsauGOBP2 [1] (setting [3]), the “Fluorescence at max (%)” value amounted to 45 ± 1.5%.

In the case of `C=C(C)[C@H]1CC=C(C)CC1` [D-Limonene], the IC50 on recombinant PsauGOBP2 [1] was > 30 µM. In the test with recombinant PsauGOBP2 [1] (setting [3]), the “Fluorescence at max (%)” value was found to be 85 ± 5%.

Consider `CC(C)=CCC/C(C)=C/CC/C(C)=C/CO` [Farnesol], for which, on recombinant PsauGOBP2 [1], the IC50 was > 30 µM. In addition, the “Fluorescence at max (%)” value in the test with recombinant PsauGOBP2 [1] (setting [3]) was 100 ± 3%. The Ki on PsauGOBP1 is 6.4 µM.

On to `CC/C=C\CC1C(=O)CCC1CC(=O)OC` (centres unmarked) [Methyl jasmonate], for which the IC50 at recombinant PsauGOBP2 [1] is > 30 µM. Besides, in the test on recombinant PsauGOBP2 [1] (setting [3]), the “Fluorescence at max (%)” value turned out to be 70 ± 7%.

In the case of `C=CC(=C)CC/C=C(\C)CCC=C(C)C` [(E)-β-farnesene], the IC50 at recombinant PsauGOBP2 [1] is > 30 µM. In addition, the “Fluorescence at max (%)” value with recombinant PsauGOBP2 [1] (setting [3]) is reported as 75 ± 7%.

Consider `CCCCCCCC=O` [Octanal], for which the IC50 on recombinant PsauGOBP2 [1] is > 30 µM. Also, the “Fluorescence at max (%)” value with recombinant PsauGOBP2 [1] (setting [3]) is on record as 75 ± 2%.

With `CC/C=C\CC1=C(C)CCC1=O` [(Z)-jasmone], the IC50 at recombinant PsauGOBP2 [1] is > 30 µM. Besides, the “Fluorescence at max (%)” value in the test on recombinant PsauGOBP2 [1] (setting [3]) was determined as 75 ± 3%.

`CCCCCCCCC=O` [Nonanal]: the IC50 on recombinant PsauGOBP2 [1] is > 30 µM. Further, the “Fluorescence at max (%)” value in the test with recombinant PsauGOBP2 [1] (setting [3]) was determined as 85 ± 2%. The Ki at PsauGOBP1 was 6.8 µM.

Regarding `CCC/C=C/COC(C)=O` [(E)-2-Hexenyl acetate, (E)-2-hexenyl acetate], on recombinant PsauGOBP2 [1], the IC50 is > 30 µM. Also, the “Fluorescence at max (%)” value with recombinant PsauGOBP2 [1] (setting [3]) is reported as 69 ± 3%.

Consider `CC/C=C\C[C@H]1C(=O)CC[C@@H]1CC(=O)O` [Jasmonic acid], for which the IC50 at recombinant PsauGOBP2 [1] was > 30 µM. In addition, in the test on recombinant PsauGOBP2 [1] (setting [3]), the “Fluorescence at max (%)” value is 73 ± 5%.

As to `CCCC/C=C\CCCCCCCCOC(C)=O` [Z9-14: Ac], at recombinant PsauGOBP2 [1], the Ki was 4.9 µM and < 5 µM; the IC50 was found to be 7.5 ± 0.9 µM. Also, in the test on recombinant PsauGOBP2 [1] (setting [4]), the “Fluorescence at max (%)” value is recorded as 45 ± 3%.

`CC/C=C\CCO` [(Z)-3-Hexen-1-ol, (Z)-3-hexen-1-ol]: the IC50 at recombinant PsauGOBP2 [1] was > 30 µM. The “Fluorescence at max (%)” value with recombinant PsauGOBP2 [1] (setting [3]) is 72 ± 3%. The Ki at PsauGOBP1 was 8.5 µM.

As for `CC(C)=CCCC(C)=CC=O` (mixture of isomers) [Citral], the IC50 on recombinant PsauGOBP2 [1] is > 30 µM. Besides, in the test with recombinant PsauGOBP2 [1] (setting [3]), the “Fluorescence at max (%)” value is on record as 76 ± 5%. The inhibition constant (Ki) on PsauGOBP1 was 5.6 µM.

As to `C=C1CC/C=C(\C)CC[C@@H]2[C@@H]1CC2(C)C` [(E)-Caryophyllene, (E)-caryophyllene], on recombinant PsauGOBP2 [1], the IC50 is > 30 µM. The “Fluorescence at max (%)” value in the test with recombinant PsauGOBP2 [1] (setting [3]) worked out at 90 ± 3%.

On to `C=CC(C)(O)CCC=C(C)C` (centres unmarked) [Linalool], for which the IC50 at recombinant PsauGOBP2 [1] is > 30 µM. In the test on recombinant PsauGOBP2 [1] (setting [3]), the “Fluorescence at max (%)” value was 74 ± 6%.

As to `CCC/C=C/CO` [(E)-2-Hexen-1-ol, (E)-2-hexen-1-ol], the IC50 at recombinant PsauGOBP2 [1] is > 30 µM. The “Fluorescence at max (%)” value in the test with recombinant PsauGOBP2 [1] (setting [3]) stood at 69 ± 7%.

On to `C=C1CCC2CC1C2(C)C` (stereo not drawn) [β-Pinene, β-pinene], for which the IC50 on recombinant PsauGOBP2 [1] is > 30 µM. Further, the “Fluorescence at max (%)” value in the test on recombinant PsauGOBP2 [1] (setting [3]) is recorded as 79 ± 9%.

In the case of `O=Cc1ccccc1` [Benzaldehyde], the IC50 at recombinant PsauGOBP2 [1] is > 30 µM. In addition, in the test on recombinant PsauGOBP2 [1] (setting [3]), the “Fluorescence at max (%)” value came out at 74 ± 3%. The Ki on PsauGOBP1 was 9.4 µM.

Turning to `CCCC/C=C\CCCCCCCCCCOC(C)=O` [Z11-16: Ac], at recombinant PsauGOBP2 [1], the Ki was 4.2 µM and < 5 µM; the IC50 stood at 6.5 ± 1.2 µM. Moreover, the “Fluorescence at max (%)” value with recombinant PsauGOBP2 [1] (setting [4]) worked out at 41 ± 4%.

Take `c1ccc2[nH]ccc2c1` [Indole]: the IC50 at recombinant PsauGOBP2 [1] was > 30 µM. For the same compound, the “Fluorescence at max (%)” value in the test on recombinant PsauGOBP2 [1] (setting [3]) was 100 ± 8%.

Regarding `CCCCCCCCCC=O` [Decanal], on recombinant PsauGOBP2 [1], the IC50 is > 30 µM. For the same compound, in the test on recombinant PsauGOBP2 [1] (setting [3]), the “Fluorescence at max (%)” value is 73 ± 7%.

As for `CCCCCCCCCCCCO` [Dodecanol], on recombinant PsauGOBP2 [1], the inhibition constant (Ki) is 13 ± 0.4 µM and the IC50 came to 19.5 ± 0.6 µM. Further, the “Fluorescence at max (%)” value with recombinant PsauGOBP2 [1] (setting [3]) is given as 49 ± 3%.

As for `COC(=O)c1ccccc1O` [Methyl salicylate], the IC50 at recombinant PsauGOBP2 [1] is > 30 µM. Further, in the test on recombinant PsauGOBP2 [1] (setting [3]), the “Fluorescence at max (%)” value is reported as 79 ± 2%.

With `CC/C=C\CCOC(C)=O` [(Z)-3-Hexenyl acetate, (Z)-3-hexenyl acetate], the IC50 on recombinant PsauGOBP2 [1] is > 30 µM. Further, the “Fluorescence at max (%)” value with recombinant PsauGOBP2 [1] (setting [3]) was 86 ± 2%. In addition, at PsauGOBP1, the Ki is 4 µM.

On to `CC(=O)OCCc1ccccc1` [Phenylethyl acetate], for which, at recombinant PsauGOBP2 [1], the Ki is 6.3 ± 0.3 µM and the IC50 came to 10.5 ± 0.5 µM. The “Fluorescence at max (%)” value in the test with recombinant PsauGOBP2 [1] (setting [3]) was 39 ± 3%.

Turning to `CCC/C=C/C=O` [(E)-2-Hexenal, (E)-2-hexenal], the IC50 at recombinant PsauGOBP2 [1] is > 30 µM. In the test with recombinant PsauGOBP2 [1] (setting [3]), the “Fluorescence at max (%)” value was 77 ± 3%.

Turning to `CCCCCCCO` [Heptanol], on recombinant PsauGOBP2 [1], the IC50 was > 30 µM. Further, the “Fluorescence at max (%)” value with recombinant PsauGOBP2 [1] (setting [3]) is on record as 80 ± 2%.

Turning to `c1ccc(Nc2cccc3ccccc23)cc1` [1-NPN, N-phenyl-1-naphthylamine], the Kd on recombinant PsauGOBP2 [2] came to 3.2 ± 0.19 µM.

On to `C=C/C(C)=C/CC=C(C)C` [β-Ocimene, β-ocimene], for which the IC50 at recombinant PsauGOBP2 [1] was > 30 µM. Further, the “Fluorescence at max (%)” value in the test with recombinant PsauGOBP2 [1] (setting [3]) is given as 90 ± 4%.
